Experimental data as given in article PMC12090182, “Repurposing of the RIPK1-Selective Benzo[1,4]oxazepin-4-one Scaffold for the Development of a Type III LIMK1/2 Inhibitor” (ACS Chemical Biology, 2025).
pEC50: −log10 of the molar value. “And” between values parts separate entries of the source, which are not always exact repeats. Identical values can stand only once. Like-named read-outs stand apart in the source and are kept apart here.

Experiments:
CSNK2A2 = CSNK2A2 (Homo sapiens, UniProt P19784); test: DSF selectivity screening; type: binding; details: 10 μM compound
CSNK2A2, sequence (P19784 1-334): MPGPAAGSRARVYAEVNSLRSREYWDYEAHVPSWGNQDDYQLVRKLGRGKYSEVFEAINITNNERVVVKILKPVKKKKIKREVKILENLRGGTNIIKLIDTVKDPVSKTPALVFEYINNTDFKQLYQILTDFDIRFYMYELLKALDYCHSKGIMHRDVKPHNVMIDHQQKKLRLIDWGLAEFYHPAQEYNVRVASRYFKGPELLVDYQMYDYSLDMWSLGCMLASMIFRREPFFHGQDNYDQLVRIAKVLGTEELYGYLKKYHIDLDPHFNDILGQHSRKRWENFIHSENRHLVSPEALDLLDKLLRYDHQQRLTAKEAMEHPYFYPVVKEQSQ
Method: The assay was performed as previously described.[29],[35] Briefly, recombinant protein kinase domains at a concentration of 2 μM were mixed with a 10 μM compound in a buffer containing 20 mM HEPES, pH 7.5, and 500 mM NaCl. SYPRO Orange (5000×, Invitrogen) was added as a fluorescence probe (1 μL per mL). Subsequently, temperature-dependent protein unfolding profiles were measured using a QuantStudio 5 real-time PCR machine (Thermo Fisher). Excitation and emission filters were set to 465 and 590 nm, respectively. The temperature was raised with a step rate of 3 °C per minute. Data points were analyzed with internal software (Thermal Shift Software version 1.4, Thermo Fisher) using the Boltzmann equation to determine the inflection point of the transition curve (Table S4).

RIPK1 = molecular target: T1, RIPK1 (Homo sapiens, UniProt Q13546); test: NanoBRET cellular target engagement; type: cell-based; details: RIPK1, HEK293T cells
T1 construct: full-length LIMK1/2, RIPK1, BTK, and LRRK2 cloned in a frame in a NanoLuc-vector (Promega); host or cells: HEK293T
T1 sequence (Q13546 1-671): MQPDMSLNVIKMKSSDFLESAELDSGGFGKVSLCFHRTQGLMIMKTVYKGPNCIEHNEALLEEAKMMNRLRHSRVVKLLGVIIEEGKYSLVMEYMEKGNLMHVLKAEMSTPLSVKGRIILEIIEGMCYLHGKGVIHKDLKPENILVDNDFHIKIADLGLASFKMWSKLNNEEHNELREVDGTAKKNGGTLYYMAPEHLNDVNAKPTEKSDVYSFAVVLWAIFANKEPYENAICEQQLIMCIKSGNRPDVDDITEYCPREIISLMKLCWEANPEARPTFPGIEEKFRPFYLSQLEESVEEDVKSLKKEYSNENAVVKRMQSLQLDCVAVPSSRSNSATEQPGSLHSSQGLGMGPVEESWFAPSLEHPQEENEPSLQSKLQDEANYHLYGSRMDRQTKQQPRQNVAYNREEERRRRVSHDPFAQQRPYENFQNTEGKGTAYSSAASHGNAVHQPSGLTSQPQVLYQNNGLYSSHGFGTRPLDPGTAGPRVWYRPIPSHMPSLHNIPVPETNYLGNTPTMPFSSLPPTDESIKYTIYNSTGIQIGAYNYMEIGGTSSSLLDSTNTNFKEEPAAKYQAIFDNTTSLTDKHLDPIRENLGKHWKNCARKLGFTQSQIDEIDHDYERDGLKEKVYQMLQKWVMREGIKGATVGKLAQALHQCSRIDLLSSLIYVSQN
Method: The assay was performed as described previously.[31],[32] In brief, full-length LIMK1/2, RIPK1, BTK, and LRRK2 cloned in a frame in a NanoLuc-vector (Promega) were transfected into HEK293T cells (ATCC CRL-1573) using FuGENE HD (Promega, E2312), and proteins were allowed to express for 20 h. The serially diluted inhibitor and NanoBRET Kinase Tracer (Promega) used at the previously determined Tracer KD,app (Table S1) were pipetted into white 384-well plates (Greiner 781 207) using an ECHO 550 acoustic dispenser (Labcyte). The corresponding transfected cells were added and reseeded at a density of 2 × 10^5 cells/mL after trypsinization and resuspension in Opti-MEM without phenol red (Life Technologies). The system was allowed to equilibrate for 2 h at 37 °C and 5% CO2 prior to BRET measurements. To measure BRET, a NanoBRET Nano-Glo substrate and an extracellular NanoLuc inhibitor (Promega, N2160) were added as per the manufacturer's protocol, and filtered luminescence was measured on a PHERAstar plate reader (BMG Labtech) equipped with a luminescence filter pair (a 450 nm BP filter (donor) and a 610 nm LP filter (acceptor)). Competitive displacement data were then plotted using GraphPad Prism 10 software using a normalized three-parameter curve fit with the following equation: Y = 100/( [drawing 1] ).

[1] = system: cofilin phosphorylation (LIMK1/2 substrate); test: Western blot of cofilin phosphorylation in LN-229 cells; type: cell-based, human; details: 6 h
Method: LN-229, a human glioblastoma cell line, was cultured until passage 17 in Dulbecco’s modified Eagle’s medium (DMEM) with GlutaMAX, 10% fetal bovine serum (FBS), and 1% penicillin/streptomycin. Cells were maintained in an incubator with 5% CO2 at 37 °C. For the treatment, 3 × 10^5 cells were plated and treated with the tested compounds at the indicated concentrations and DMSO as the control for 6 h. The cells were then lysed using RIPA buffer (50 mM Tris HCl pH 7.4, 150 mM NaCl, 1% Triton X-100, 1% NaDOC, 0.1% SDS, and 1 mM EDTA), freshly supplemented with protease and phosphatase inhibitor cocktails (Sigma-Aldrich, Darmstadt, Germany). After a 1 h incubation on ice, the lysates were centrifuged for 30 min at 250g, and the protein-containing supernatant was collected. The protein concentrations were determined using the protein assay dye reagent concentrate (Bradford, Bio-Rad, Hercules, CA, USA) and prediluted protein assay standard bovine serum albumin (BSA) set (Thermo Fisher Scientific, Darmstadt, Germany). Then, equal amounts of protein were mixed with a Roti-Load 1 dye (Carl Roth, Karlsruhe, Germany) and 4× Laemmli buffer (Bio-Rad, Hercules, CA, USA), denatured at 95 °C, and run on NuPAGE 4–12% bis-Tris gels (Thermo Fisher Scientific, Darmstadt, Germany). Proteins were blotted on methanol-activated PVDF transfer membranes (Thermo Fisher Scientific, Darmstadt, Germany) using the wet transfer method with transfer buffer (Thermo Fisher Scientific, Darmstadt, Germany) and 20% methanol. Subsequently, the membranes were blocked with 5% milk or 3% BSA in 0.1% TBS-T for 1 h at RT and incubated overnight at 4 °C with primary antibodies: GAPDH (catalog no. 2118, Cell Signaling Technology, MA, USA, 1:1000 dilution), LIMK1 (catalog no. 3842, Cell Signaling Technology, 1:1000 dilution), LIMK2 (catalog no. 3845, 1:500 dilution), p-cofilin (catalog no. 3313, Cell Signaling Technology, 1:1000 dilution), cofilin (catalog no. 5175, Cell Signaling Technology, 1:1000 dilution). […]

FGFR3(G697C) = FGFR3(G697C) (Homo sapiens, UniProt P22607, G697C); test: biochemical; type: binding; details: compound concentration 100 nM; Entrez FGFR3; read-out: Percent Control
FGFR3(G697C), sequence (P22607 23-806 G697C): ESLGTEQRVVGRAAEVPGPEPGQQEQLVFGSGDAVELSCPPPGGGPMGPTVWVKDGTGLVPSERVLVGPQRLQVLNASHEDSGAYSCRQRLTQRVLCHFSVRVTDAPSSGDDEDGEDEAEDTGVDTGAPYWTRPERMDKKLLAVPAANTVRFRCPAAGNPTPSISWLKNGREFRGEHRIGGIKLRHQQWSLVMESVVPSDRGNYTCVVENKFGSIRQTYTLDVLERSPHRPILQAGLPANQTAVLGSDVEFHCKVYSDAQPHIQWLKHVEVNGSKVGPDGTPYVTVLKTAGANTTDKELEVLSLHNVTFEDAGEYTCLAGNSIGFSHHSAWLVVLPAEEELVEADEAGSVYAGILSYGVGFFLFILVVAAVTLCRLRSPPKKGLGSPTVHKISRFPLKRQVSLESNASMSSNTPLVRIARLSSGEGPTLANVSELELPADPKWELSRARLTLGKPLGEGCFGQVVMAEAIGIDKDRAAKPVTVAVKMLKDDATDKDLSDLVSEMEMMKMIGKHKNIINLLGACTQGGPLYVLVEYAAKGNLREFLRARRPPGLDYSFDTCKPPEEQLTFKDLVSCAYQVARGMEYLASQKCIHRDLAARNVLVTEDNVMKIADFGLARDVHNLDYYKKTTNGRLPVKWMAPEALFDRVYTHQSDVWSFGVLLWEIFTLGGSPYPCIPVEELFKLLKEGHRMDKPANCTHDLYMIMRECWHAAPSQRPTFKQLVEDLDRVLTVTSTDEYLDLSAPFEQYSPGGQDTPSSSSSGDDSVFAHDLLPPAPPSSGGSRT

KIT(D816V) = KIT(D816V) (Homo sapiens, UniProt P10721, D816V); test: biochemical; type: binding; details: compound concentration 100 nM; Entrez KIT; read-out: Percent Control
KIT(D816V), sequence (P10721 26-976 D816V): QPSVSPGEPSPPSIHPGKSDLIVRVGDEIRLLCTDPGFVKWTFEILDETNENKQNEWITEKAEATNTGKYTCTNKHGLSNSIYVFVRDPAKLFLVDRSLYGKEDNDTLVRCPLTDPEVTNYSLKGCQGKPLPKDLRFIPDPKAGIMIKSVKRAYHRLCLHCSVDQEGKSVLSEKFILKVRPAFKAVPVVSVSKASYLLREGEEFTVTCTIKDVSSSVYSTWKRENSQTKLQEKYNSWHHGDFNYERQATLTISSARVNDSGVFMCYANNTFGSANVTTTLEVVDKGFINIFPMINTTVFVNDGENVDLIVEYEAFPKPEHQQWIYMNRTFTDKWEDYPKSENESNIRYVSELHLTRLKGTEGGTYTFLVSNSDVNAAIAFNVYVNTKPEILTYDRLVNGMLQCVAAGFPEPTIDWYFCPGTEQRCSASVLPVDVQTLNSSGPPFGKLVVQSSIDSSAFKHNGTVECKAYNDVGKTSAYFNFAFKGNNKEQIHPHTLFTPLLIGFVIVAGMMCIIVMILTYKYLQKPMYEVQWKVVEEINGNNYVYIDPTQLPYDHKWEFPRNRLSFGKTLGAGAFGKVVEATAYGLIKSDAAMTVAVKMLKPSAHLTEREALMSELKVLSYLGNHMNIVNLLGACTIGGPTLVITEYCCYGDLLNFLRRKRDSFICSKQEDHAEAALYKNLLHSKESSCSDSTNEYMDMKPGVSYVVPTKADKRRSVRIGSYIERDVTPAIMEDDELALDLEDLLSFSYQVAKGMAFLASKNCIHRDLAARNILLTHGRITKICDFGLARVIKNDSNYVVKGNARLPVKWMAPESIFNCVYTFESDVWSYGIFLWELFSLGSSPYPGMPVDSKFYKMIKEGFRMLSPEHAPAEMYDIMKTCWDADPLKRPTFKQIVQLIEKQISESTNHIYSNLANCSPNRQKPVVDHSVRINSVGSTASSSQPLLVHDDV

| Compound | ΔTm at 10 µM (CSNK2A2) [°C] | pEC50 (RIPK1; read-out: EC50 (NanoBRET)) | cofilin phosphorylation (Western blot) ([1]; 5 μM) | remaining activity at 0.1 µM (FGFR3(G697C)) [%] | remaining activity at 0.1 µM (KIT(D816V)) [%] | pEC50 (RIPK1; read-out: EC50 (NanoBRET), Figure 4C) | cofilin phosphorylation (Western blot) ([1]; 100 nM) | cofilin phosphorylation (Western blot) ([1]; 1 μM and higher concentrations) |
| --- | --- | --- | --- | --- | --- | --- | --- | --- |
| CN1C(=O)[C@@H](N2CCc3c(C(N)=O)nn(Cc4ccccc4)c3C2=O)COc2ccccc21 [Compound 11] | 2.2 | 5.46 | no effect | – | – | – | – | – |
| CN1C(=O)[C@@H](N2CCc3c(nn(Cc4ccccc4)c3C(N)=O)C2=O)COc2cc(Cl)ccc21 [Compound 10, (S)-2-benzyl-6-(8-chloro-5-methyl-4-oxo-2,3,4,5-tetrahydrobenzo[b][1,4]oxazepin-3-yl)-7-oxo-4,5,6,7-tetrahydro-2H-pyrazolo[3,4-c]pyridine-3-carboxamide] | 2.3 | 8.20 and 8.11 | – | 92 | 100 | 8.11 | weaker levels of phosphorylation | almost completely abrogated |
